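These data come from cells grown in 96-well plates and exposed to compound for 48 hours at five concentrations. GI50 = concentration required for 50% inhibition of growth.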 Active and inactive are the calls of the source. Cut-off read from the data, not from the text of the source: active = GI50 up to about 1.1 µM and inactive = higher.
Columns and labels:
Assay in all cases: growth of human tumour cells (NCI), 48 h
LOX IMVI = test system: LOX IMVI
ACHN = test system: ACHN
SR = test system: SR
SNB-75 = test system: SNB-75
MOLT-4 = test system: MOLT-4
UACC-257 = test system: UACC-257
HCT-116 = test system: HCT-116
CCRF-CEM = test system: CCRF-CEM
Malme-3M = test system: Malme-3M
NCI-H522 = test system: NCI-H522
KM12 = test system: KM12
NCI-H23 = test system: NCI-H23
SK-MEL-5 = test system: SK-MEL-5
SW-620 = test system: SW-620
OVCAR-8 = test system: OVCAR-8
SNB-19 = test system: SNB-19

Measured: GI50

CC(=O)Nc1ccc(-c2nnc(SCC(=O)Nc3ccccc3C)o2)cc1
inactive: LOX IMVI 63 µM | ACHN > 100 µM | SR 55.5 µM | SNB-75 > 100 µM | MOLT-4 51.9 µM | UACC-257 > 100 µM | HCT-116 15.6 µM | CCRF-CEM 61.7 µM | Malme-3M > 100 µM | NCI-H522 58.3 µM | KM12 44.7 µM | NCI-H23 > 100 µM | SK-MEL-5 93.1 µM | SW-620 > 100 µM | OVCAR-8 > 100 µM

COC(=O)[C@H]1C=C[C@@H](C)n2c(=O)c3ccccc3c(=O)n21
inactive: LOX IMVI > 100 µM | ACHN > 100 µM | SR > 100 µM | SNB-75 > 100 µM | MOLT-4 > 100 µM | UACC-257 > 100 µM | HCT-116 > 100 µM | CCRF-CEM > 100 µM | Malme-3M > 100 µM | SNB-19 > 100 µM | NCI-H522 > 100 µM | KM12 > 100 µM | NCI-H23 > 100 µM | SK-MEL-5 > 100 µM | SW-620 > 100 µM | OVCAR-8 > 100 µM

O=C1c2ccccc2C(=O)N1C/C=N/NS(=O)(=O)c1cccc([N+](=O)[O-])c1
inactive: LOX IMVI > 100 µM | ACHN > 100 µM | SR > 100 µM | SNB-75 > 100 µM | MOLT-4 > 100 µM | UACC-257 > 100 µM | HCT-116 > 100 µM | CCRF-CEM > 100 µM | Malme-3M > 100 µM | SNB-19 > 100 µM | NCI-H522 > 100 µM | KM12 > 100 µM | NCI-H23 > 100 µM | SK-MEL-5 > 100 µM | SW-620 > 100 µM | OVCAR-8 > 100 µM

CCC(=O)c1c(NOC2OC(COC(C)=O)C(OC(C)=O)C(OC(C)=O)C2OC(C)=O)nc(OC)n(C)c1=O (stereo not given)
inactive: LOX IMVI > 100 µM | ACHN > 100 µM | SR > 100 µM | SNB-75 > 100 µM | MOLT-4 > 100 µM | HCT-116 > 100 µM | CCRF-CEM > 100 µM | SNB-19 > 100 µM | NCI-H522 > 100 µM | KM12 > 100 µM | NCI-H23 > 100 µM | SK-MEL-5 > 100 µM | SW-620 > 100 µM | OVCAR-8 > 100 µM

CCOC(=O)C1=C(c2ccccc2)NC(c2ccccc2)=C(C(=O)OCC)c2c1c(=O)cc[nH]c2=O
inactive: LOX IMVI 62.1 µM | ACHN 72.8 µM | SR 83.8 µM | SNB-75 > 100 µM | MOLT-4 63.1 µM | UACC-257 99.8 µM | HCT-116 > 100 µM | Malme-3M > 100 µM | SNB-19 > 100 µM | NCI-H522 84.1 µM | KM12 > 100 µM | NCI-H23 79.4 µM | SW-620 > 100 µM | OVCAR-8 > 100 µM
